# Where two headings read alike, the source gives them in different places.
# How the values were obtained:
# [1] = test system: STZ-induced diabetic SD rats
# Protocol: Male SD rats, 6 weeks of age and weighing 180-200 g, were used in this study; the rats had free access to food and water and were maintained in cages in an environmentally controlled room with a 12 hour light-dark cycle. Diabetes was induced by following dosing of animals with streptozotocin (50 mg/kg/day dosed i.p. for each of the first 3 days of the protocol) in 10 mM sodium citrate-buffer pH 4.6. […] Animals which maintained an elevated blood glucose level of over 9 mM were deemed diabetic.
# The retinal images were scanned by a commercially available Fourier-domain OCT (RTVue-100; version 2.1; Optovue, Inc., California, USA). Super-luminescent diode light source with a central wavelength of 840 nm and a full bandwidth of 50 nm was adapted to the OCT. The retinal thickness was accessed by the automatic software of RTVue scanner with manual adjusting. The retinal thickness was defined from layer of retinal pigment eitheluim (RPE) to retinal ganglion cell layer (GCL).
# Two separate studies were conducted. Retinal images were taken on experimental day 4, 10, 13, 17, 22, 28 and 31 for the second study and day 0, 4, 7, 10, 14 and 18 for the first study. Animals were anesthetized by inhalation of 5% isoflourane and pupils were diluted with 1% tropicamide and 1% phenylephrine. Prior to OCT analysis animals were fixed on a support frame and the eye to be imaged positioned to align with the center of the scan beam perpendicular to the fundus. […] After imaging, the animals were recovered and returned to cages. Retinal thickness from six time points of OCT measurement were analyzed by repeated measures analysis of variance (ANOVA) using Prism software. […] All data were expressed as mean value±SEM.
# [2] = test system: STZ-induced diabetic Brown Norway rats (blood-retinal barrier); conditions: hyperglycaemic BN rats
# Protocol: (§1) Brown Norway (BN) rats, 6 weeks of age and weighing 180-200 g, were used in this study; the rats had free access to food and water and were maintained in cages in an environmentally controlled room with a 12 hour light-dark cycle. Diabetes was induced by following dosing of animals with streptozotocin (65 mg/kg/day dosed i.p. for each of the first 3 days of the protocol) in 10 mM sodium citrate-buffer pH 4.6. […] Animals which maintained an elevated blood glucose level of over 9 mM were deemed diabetic.
# Eyes were enucleated, hemisected along the ora serrata, and the vitreous humor removed. Eyecups were immersion fixed in 4% (w/v) paraformaldehyde for 30 min, washed in PBS, and the retinas detached. Fixed retinas were cryoprotected, embedded in Tissue-Tek OCT compound snap frozen in liquid nitrogen-cooled isopentane, and 12-μm cryosections prepared. Sections was immunostained with antibodies specific for rat immunoglobulin G (IgG) in order to locate any nonvascular IgG and isolectin B4 to determine the location of retinal blood vessels in the retinal sections and viewed on a confocal microscope. Fluorescence was visualized by using a Nikon TE-2000 C1 confocal system (Nikon Ltd, Kingston upon Thames, UK). In some cases retinal blood vessels were highlighted using propridium iodide staining
# Lp-PLA2 = Lp-PLA2 (Rattus norvegicus, UniProt A6JJ35); conditions: hyperglycemic BN rats, 10 mg/kg i.p. QD
# Sequence of Lp-PLA2 (A6JJ35 22-440): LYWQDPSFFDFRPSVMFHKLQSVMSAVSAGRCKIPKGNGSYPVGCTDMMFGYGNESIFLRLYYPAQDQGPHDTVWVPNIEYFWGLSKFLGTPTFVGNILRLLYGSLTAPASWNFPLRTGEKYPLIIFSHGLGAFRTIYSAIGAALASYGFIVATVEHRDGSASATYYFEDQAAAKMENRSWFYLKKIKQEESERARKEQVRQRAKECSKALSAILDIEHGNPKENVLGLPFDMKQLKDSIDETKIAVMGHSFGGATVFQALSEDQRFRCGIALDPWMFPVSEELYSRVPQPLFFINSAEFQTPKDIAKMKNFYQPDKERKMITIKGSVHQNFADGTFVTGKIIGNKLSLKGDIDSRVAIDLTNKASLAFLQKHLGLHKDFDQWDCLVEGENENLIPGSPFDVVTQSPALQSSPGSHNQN
# Protocol: as §1
# [3] = test system: STZ-induced diabetic Brown Norway rats (blood-retinal barrier); conditions: BN rats, 2 week study, 10 mg/kg i.p. QD; not statistically robust
# Protocol: as §1
compound,measurement,setting,value
CN(C)CCN(Cc1ccc(-c2ccc(C(F)(F)F)cc2)cc1)C(=O)Cn1cc(Cc2cnn(C)c2)c(=O)nc1SCc1ccc(F)cc1 [Lp-PLA2 inhibitor '495],STZ-induced retinal thinning (neuroretinal thickness by OCT),"[1]; first study, 10 mg/kg/day i.p. from day 8, assessed at 10 and 18 days, p<0.05",partially but significantly inhibited
same,incidence of sub-retinal fluid accumulation by OCT,"[1]; hyperglycaemic SD rats, 10 mg/kg/day, day 14",no animals to have overt retinal fluid accumulation
same,STZ-induced retinal thinning (neuroretinal thickness by OCT),"[1]; second study, 10 mg/kg/d i.p. from day 4, vs vehicle-treated diabetic rats, p<0.001",significant attenuation in the development of retinal thinning
same,albumin leakage from retinal vessels (immunohistochemistry),"[2]; 10 mg/kg QD i.p., 4 weeks, listed as SB435495, 10 mg/kg",less leakage and extensive co-localization of albumin with retinal blood vessels
same,albumin leakage from retinal vessels (immunohistochemistry),"[2]; 20 mg/kg QD i.p., 2 weeks, 20 mg/kg",albumin is contained intravascularly and co-localised with retinal vessels
same,albumin leakage from retinal vessels (immunohistochemistry),"[2]; 20 mg/kg QD i.p., 2 weeks, listed as SB435495, 20 mg/kg",less leakage and extensive co-localization of albumin with retinal blood vessels
same,trough Lp-PLA2 inhibition,Lp-PLA2; 2 weeks study,89.7%
same,trough Lp-PLA2 inhibition,Lp-PLA2; 4 week study,93.2%
same,Evans blue (albumin) leakage in retinae,[3],reduced this leak to levels exhibited by the normo-glycaemic group

# Source: US20130267544A1, “Use of LP-PLA2 Inhibitors in the Treatment and Prevention of Eye Diseases” (priority 2010, published 2013)
